What was measured:
Test in all cases: Kinase panel profiling at 1 µmol/L (mobility shift assay, Carna)
Assay type in all cases: biochemical
Details in all cases: 1 µmol/L of BTK inhibitor
[1] = biological target: T1, AXL (Homo sapiens, UniProt P30530)
T1 construct: purchased Carna Biosciences
T1 sequence (P30530 26-894): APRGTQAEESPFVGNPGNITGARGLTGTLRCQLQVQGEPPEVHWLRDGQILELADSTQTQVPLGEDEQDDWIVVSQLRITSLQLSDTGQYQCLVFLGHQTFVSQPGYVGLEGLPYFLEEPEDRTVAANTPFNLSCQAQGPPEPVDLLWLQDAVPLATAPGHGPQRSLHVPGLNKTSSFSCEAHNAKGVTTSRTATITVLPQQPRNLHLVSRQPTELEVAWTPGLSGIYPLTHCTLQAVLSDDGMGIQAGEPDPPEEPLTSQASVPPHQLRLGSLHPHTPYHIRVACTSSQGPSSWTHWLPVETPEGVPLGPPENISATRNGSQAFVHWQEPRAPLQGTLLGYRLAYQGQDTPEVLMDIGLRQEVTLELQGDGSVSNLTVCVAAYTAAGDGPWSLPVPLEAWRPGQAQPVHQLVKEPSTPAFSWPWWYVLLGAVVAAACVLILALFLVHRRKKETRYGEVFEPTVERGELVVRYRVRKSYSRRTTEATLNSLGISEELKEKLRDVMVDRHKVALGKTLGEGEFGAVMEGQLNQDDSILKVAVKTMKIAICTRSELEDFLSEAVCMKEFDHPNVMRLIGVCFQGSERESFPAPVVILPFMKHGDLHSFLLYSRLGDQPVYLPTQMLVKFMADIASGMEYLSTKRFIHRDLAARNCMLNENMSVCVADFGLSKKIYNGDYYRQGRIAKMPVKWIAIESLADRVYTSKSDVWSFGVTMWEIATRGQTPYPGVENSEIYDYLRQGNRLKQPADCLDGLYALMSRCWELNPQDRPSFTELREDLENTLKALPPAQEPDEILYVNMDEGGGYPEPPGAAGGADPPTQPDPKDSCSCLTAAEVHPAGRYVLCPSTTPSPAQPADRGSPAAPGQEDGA

[2] = biological target: T2, CaMK2δ (Homo sapiens, UniProt Q13557)
T2 construct: purchased Carna Biosciences

[3] = biological target: T3, CDC2/CycB1 (Homo sapiens, UniProt P06493)
T3 construct: purchased Carna Biosciences

[4] = biological target: T4, DAPK1 (Homo sapiens, UniProt P53355)
T4 construct: purchased Carna Biosciences

[5] = biological target: T5, DYRK2 (Homo sapiens, UniProt Q92630)
T5 construct: purchased Carna Biosciences
T5 sequence (Q92630 1-601): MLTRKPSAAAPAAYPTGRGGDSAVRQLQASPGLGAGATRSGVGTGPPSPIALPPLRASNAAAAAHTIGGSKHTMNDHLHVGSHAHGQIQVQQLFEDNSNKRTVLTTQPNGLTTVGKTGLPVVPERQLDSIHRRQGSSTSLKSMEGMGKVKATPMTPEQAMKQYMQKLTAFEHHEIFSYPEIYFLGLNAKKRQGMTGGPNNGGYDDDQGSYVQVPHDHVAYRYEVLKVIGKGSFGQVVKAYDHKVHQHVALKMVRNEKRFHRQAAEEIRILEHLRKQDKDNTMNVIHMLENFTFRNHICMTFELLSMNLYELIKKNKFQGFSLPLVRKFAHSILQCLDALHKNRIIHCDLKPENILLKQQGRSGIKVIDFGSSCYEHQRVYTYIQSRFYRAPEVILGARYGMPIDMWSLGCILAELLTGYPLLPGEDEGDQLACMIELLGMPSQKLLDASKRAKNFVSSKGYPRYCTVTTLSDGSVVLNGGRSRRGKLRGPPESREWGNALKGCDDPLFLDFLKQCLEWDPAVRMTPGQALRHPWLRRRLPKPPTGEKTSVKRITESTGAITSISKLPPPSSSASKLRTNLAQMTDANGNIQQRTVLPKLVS

[6] = biological target: T6, NEK6 (Homo sapiens, UniProt Q9HC98)
T6 construct: purchased Carna Biosciences

[7] = biological target: T7, NEK9 (Homo sapiens, UniProt Q8TD19)
T7 construct: purchased Carna Biosciences
T7 sequence (Q8TD19 1-979): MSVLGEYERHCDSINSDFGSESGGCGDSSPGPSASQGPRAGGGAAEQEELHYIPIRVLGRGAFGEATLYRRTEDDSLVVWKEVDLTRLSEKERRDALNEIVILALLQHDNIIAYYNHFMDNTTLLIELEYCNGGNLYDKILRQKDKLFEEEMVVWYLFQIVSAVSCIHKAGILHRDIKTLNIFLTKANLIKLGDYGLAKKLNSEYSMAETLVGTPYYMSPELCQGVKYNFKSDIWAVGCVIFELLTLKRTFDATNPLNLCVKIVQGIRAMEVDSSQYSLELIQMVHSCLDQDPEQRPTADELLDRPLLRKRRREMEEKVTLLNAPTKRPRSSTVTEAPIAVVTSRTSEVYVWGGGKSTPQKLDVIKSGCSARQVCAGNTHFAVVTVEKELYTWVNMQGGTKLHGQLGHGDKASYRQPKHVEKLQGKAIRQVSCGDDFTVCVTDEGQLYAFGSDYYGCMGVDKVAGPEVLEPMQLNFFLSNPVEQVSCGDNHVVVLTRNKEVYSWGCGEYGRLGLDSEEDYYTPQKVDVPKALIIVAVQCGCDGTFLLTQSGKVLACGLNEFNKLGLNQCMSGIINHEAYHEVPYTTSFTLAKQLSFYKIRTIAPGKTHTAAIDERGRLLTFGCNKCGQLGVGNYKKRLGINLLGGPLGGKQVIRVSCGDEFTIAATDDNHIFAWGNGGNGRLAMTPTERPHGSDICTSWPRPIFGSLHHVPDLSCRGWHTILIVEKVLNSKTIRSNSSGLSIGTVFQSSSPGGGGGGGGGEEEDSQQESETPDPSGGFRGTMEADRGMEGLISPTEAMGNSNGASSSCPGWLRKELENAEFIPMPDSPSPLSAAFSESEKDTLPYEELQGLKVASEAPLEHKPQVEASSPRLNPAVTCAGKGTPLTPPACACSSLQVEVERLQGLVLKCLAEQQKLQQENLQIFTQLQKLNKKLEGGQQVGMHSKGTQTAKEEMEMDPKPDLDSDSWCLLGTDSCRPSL

[8] = biological target: T8, PAK4 (Homo sapiens, UniProt O96013)
T8 construct: purchased Carna Biosciences

[9] = biological target: T9, PIM1 (Homo sapiens, UniProt P11309)
T9 construct: purchased Carna Biosciences
T9 sequence (P11309 whole entry): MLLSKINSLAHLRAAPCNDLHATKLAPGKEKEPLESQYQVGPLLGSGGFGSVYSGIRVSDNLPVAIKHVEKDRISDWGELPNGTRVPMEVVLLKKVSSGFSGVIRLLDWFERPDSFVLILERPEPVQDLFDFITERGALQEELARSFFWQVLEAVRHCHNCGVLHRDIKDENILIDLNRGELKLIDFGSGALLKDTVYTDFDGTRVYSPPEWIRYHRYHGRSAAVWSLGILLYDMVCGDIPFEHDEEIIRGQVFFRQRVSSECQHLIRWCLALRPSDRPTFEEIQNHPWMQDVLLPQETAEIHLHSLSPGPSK

T4 sequence (P53355 whole entry): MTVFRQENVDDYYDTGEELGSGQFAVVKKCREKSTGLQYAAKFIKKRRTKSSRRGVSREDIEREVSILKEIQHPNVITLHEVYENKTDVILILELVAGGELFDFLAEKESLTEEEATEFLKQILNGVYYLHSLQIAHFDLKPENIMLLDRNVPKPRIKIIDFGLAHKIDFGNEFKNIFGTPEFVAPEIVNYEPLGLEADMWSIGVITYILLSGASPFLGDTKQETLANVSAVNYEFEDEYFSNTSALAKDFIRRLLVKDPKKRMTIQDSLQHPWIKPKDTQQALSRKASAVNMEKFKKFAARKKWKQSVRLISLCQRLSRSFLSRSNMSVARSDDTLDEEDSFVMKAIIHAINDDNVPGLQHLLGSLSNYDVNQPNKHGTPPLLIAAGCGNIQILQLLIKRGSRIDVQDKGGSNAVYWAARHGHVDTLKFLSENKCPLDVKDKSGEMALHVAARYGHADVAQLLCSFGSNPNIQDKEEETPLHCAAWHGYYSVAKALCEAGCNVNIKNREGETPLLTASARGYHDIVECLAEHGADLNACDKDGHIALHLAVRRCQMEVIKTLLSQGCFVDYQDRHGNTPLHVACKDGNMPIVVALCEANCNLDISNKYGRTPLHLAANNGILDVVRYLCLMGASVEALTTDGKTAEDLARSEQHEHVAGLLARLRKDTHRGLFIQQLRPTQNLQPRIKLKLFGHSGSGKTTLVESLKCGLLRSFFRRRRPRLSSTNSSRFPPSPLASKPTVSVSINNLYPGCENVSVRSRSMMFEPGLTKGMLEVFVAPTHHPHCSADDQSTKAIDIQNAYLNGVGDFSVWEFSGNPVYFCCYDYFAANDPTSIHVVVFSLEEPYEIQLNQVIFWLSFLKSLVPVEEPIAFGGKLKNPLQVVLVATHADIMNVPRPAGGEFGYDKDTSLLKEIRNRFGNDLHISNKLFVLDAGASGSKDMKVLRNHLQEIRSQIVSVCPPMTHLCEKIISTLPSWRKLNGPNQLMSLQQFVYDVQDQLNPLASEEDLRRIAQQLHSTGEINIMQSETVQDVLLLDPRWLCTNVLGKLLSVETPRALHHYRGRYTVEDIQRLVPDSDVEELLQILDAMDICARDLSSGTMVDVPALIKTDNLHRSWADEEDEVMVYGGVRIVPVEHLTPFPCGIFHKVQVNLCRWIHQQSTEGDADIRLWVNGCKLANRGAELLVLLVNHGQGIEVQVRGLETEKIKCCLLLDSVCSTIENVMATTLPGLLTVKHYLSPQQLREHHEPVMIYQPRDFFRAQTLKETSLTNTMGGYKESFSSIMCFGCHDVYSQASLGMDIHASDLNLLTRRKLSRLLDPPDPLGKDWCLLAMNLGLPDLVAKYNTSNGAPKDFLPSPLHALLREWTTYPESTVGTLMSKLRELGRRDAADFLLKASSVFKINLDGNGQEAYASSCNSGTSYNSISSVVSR
T3 sequence (P06493 whole entry): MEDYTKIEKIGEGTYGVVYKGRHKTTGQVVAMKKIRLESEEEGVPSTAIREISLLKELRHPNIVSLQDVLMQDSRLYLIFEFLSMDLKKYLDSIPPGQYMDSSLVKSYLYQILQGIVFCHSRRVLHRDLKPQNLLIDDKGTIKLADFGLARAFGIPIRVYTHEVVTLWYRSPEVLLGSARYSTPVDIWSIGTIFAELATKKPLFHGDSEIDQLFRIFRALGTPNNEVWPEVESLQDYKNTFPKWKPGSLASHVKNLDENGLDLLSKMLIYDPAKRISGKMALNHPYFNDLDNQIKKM
T3 sequence (P14635 whole entry partner): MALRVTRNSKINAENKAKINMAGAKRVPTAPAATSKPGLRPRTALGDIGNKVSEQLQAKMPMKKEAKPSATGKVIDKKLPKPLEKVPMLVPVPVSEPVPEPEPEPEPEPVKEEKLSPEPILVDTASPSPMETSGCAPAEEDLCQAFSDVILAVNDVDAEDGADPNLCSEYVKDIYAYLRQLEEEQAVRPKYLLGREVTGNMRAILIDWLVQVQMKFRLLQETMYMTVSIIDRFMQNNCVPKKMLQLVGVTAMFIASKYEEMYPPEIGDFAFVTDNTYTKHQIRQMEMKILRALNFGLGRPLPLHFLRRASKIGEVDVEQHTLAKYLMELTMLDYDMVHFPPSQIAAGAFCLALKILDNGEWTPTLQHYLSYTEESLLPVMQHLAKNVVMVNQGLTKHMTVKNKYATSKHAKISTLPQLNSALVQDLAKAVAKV
T6 sequence (Q9HC98 whole entry): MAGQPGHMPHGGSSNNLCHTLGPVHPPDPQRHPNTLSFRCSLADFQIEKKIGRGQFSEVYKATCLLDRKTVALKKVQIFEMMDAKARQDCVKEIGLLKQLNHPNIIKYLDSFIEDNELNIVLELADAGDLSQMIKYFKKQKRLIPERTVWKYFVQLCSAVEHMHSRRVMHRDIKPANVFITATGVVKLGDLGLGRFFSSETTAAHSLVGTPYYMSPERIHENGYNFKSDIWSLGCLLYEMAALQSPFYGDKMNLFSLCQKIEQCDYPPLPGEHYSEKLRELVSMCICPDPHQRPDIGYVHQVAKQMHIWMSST
T8 sequence (O96013 whole entry): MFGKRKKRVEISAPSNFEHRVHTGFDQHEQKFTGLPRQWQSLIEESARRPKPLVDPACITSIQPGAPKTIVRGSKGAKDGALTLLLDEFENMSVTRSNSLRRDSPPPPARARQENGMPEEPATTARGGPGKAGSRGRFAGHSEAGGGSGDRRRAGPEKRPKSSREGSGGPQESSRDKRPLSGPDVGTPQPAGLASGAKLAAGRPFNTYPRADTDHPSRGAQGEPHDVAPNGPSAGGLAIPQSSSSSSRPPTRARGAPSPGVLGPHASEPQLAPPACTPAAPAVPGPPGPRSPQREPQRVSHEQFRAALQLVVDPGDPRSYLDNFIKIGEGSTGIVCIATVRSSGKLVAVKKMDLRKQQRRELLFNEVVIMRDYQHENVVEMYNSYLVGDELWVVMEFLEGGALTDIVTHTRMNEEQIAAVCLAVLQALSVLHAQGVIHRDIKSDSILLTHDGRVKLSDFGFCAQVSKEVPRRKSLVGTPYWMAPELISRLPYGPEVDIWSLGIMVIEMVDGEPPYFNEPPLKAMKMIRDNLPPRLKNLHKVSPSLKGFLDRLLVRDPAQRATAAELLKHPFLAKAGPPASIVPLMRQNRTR
T2 sequence (Q13557 whole entry): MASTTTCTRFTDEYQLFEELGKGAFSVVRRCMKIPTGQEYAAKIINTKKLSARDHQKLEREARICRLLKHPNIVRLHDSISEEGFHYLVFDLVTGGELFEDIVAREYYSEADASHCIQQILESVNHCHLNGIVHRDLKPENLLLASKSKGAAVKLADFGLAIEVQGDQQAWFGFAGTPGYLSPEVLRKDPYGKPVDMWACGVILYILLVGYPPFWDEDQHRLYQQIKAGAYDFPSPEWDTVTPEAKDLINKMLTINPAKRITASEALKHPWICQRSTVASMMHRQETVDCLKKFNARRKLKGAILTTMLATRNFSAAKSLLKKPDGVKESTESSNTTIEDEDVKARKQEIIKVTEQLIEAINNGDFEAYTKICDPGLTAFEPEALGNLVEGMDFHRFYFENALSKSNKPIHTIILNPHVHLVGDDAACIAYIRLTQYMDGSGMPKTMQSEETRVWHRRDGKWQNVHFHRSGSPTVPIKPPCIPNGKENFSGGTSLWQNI

Row | Structure (SMILES) | Percentage inhibition of kinase enzyme activity [1] | Percentage inhibition of kinase enzyme activity [2] | Percentage inhibition of kinase enzyme activity [3] | Percentage inhibition of kinase enzyme activity [4] | Percentage inhibition of kinase enzyme activity [5] | Percentage inhibition of kinase enzyme activity [6] | Percentage inhibition of kinase enzyme activity [7] | Percentage inhibition of kinase enzyme activity [8] | Percentage inhibition of kinase enzyme activity [9]
1 | CC#CC(=O)N1CCC[C@H]1c1nc(-c2ccc(C(=O)Nc3ccccn3)cc2)c2c(N)nccn12 [acalabrutinib] | -0.46% | -3.53% | -0.40% | -17.45% | -16.01% | -5.54% | -3.18% | -1.65% | -4.28%
2 | O=C(c1ccc(Oc2ccccc2)cc1Cl)c1c[nH]c2ncnc(N[C@@H]3CC[C@@H](CO)OC3)c12 [nemtabrutinib] | 84.52% | 14.10% | -7.65% | -7.44% | -2.66% | -0.80% | -0.83% | 53.09% | -15.07%
3 | COc1ccc(F)cc1C(=O)NCc1ccc(-c2nn([C@@H](C)C(F)(F)F)c(N)c2C(N)=O)cc1 [pirtobrutinib] | -1.48% | -7.24% | -10.48% | -0.51% | -4.14% | -2.92% | -2.20% | 4.35% | 3.95%
4 | C=CC(=O)N1CCC[C@@H](n2nc(-c3ccc(Oc4ccccc4)cc3)c3c(N)ncnc32)C1 [ibrutinib] | 8.97% | -0.83% | -1.03% | -3.80% | -1.83% | 0.77% | -3.28% | 10.65% | 

From paper PMC12586182 (Frontiers in Oncology, 2025)
